From publication PMC9131871, “Impact of Micropolymorphism Outside the Peptide Binding Groove in the Clinically Relevant Allele HLA-C*14 on T Cell Responses in HIV-1 Infection” (Journal of Virology, 2022)

How the values were obtained:
HLA-C*14:03 = HLA-C*14:03 (Homo sapiens, UniProt P10321, A176E/A330V/A35S/A97T/C350S/D114A/D33S/L171W/L180R/L218V/M285V/M309V/M331V/P208H/Q277E/Q291P/R121W/R243W/R45H/S123F/S297R/S48A/T329A/T363A/V319A); test: HLA stabilization assay on RMA-S-C1403 cells; format: cell-based; settings: 100 μM peptide, 26°C 1 h then 37°C 3 h, MAb DT-9 staining, flow cytometry, triplicate assays
Excerpt: (§1) We next sought to confirm the HLA-C*14:02/C*14:03 restriction of the HIV-1 peptides identified by LC-MS/MS. First, we tested their ability to bind to HLA-C*14:02 or HLA-C*14:03 using HLA stabilization assays. Of the 25 HIV-1 peptides, three Env peptides, Env SI8, Env AM11, and Env VM9, are located in variable regions V2 and V3. In addition, Pol AF10, Pol PF8, Pol VWL9, and Env YI9 are located in regions where high sequence variation is reported in the LANL database. Therefore, we excluded these peptides from further analysis. The other 18 peptides were synthesized and tested for binding to HLA-C*14:02/C*14:03 by analyzing their ability to stabilize surface HLA expression on TAP-defective RMA-S cell lines expressing HLA-C*14:02 (RMA-S-C1402) or HLA-C*14:03 (RMA-S-C1403). These RMA-S cell lines express equivalent levels of HLA-C*14:02 and HLA-C*14:03 on the cell surface at 26°C, and surface HLA expression declines to very low levels when the cells are warmed to 37°C in the absence of exogenously added stabilizing peptides (Fig. 2A). Peptide binding was determined by evaluating whether HLA-I expression was stabilized in the presence of 100 μM peptide.
(§2) FIG 2 HLA-C*14:02/14:03 binding of HIV-1 peptides eluted from NL4-3-infected .221-C1402 and .221-C1403 cells as assessed by HLA stabilization assay using RMA-S cell lines. (A) Histogram plots showing surface expression of HLA-C*14:02 or HLA-C*14:03 on RMA-S-C1402 or RMA-S-C1403 cells at 26°C and after cells cultured at 26°C had been warmed to 37°C for 3 h. MFI values of cells cultured at 26°C were 27.4 for HLA-C*14:02 and 28.1 for HLA-C*14:03. MFI values of cells cultured at 37°C for 3 h were 5.0 for HLA-C*14:02 and 6.54 for HLA-C*14:03. (B) Analysis of binding of 14 HIV-1 NL4.3 peptides identified by LC-MS/MS to HLA-C*14:02 (blue) or HLA-C*14:03 (red) as measured in HLA class I stabilization assays using RMA-S-C1402 or RMA-S-C1403 cells. (C) Analysis of binding of 9 additional variant peptides to HLA-C*14:02 (blue) or C*14:03 (red). For panels B and C, peptides were tested at a concentration of 100 μM. Results are plotted as percent surface HLA-I expression relative to that at 26°C, calculated as the ratio of the MFI of peptide-pulsed RMA-S-C1402 or RMA-S-C1403 cells to that of control (non-peptide-pulsed) cells kept at 26°C, multiplied by 100. Means and standard deviations (SDs) from triplicate assays are shown. Statistical analyses were performed by unpaired t test. The P values were corrected for multiple testing. *, P < 0.05 and q < 0.05; **, P < 0.01 and q < 0.03; ***, P < 0.001 and q < 0.005.
(§3) The relative affinity of peptide binding to HLA-C*14:02 and -C*14:03 was examined using RMA-S-C1402 and RMA-S-C1403 cells as previously described ([15]). Briefly, RMA-S cells were cultured at 26°C for 16 h, pulsed with peptides at 26°C for 1 h, and subsequently incubated at 37°C for 3 h. Staining of cell surface HLA-C molecules was performed with the HLA-C-reactive monoclonal antibody (MAb) DT-9 ([48]), a gift from Mary Carrington, NIH, and fluorescein isothiocyanate (FITC)-conjugated sheep anti-mouse IgG (Jackson ImmunoResearch). Staining data were acquired on a FACSCanto II instrument (BD Biosciences) and analyzed using FlowJo 10.7.1 software. Relative HLA expression was calculated as the ratio of the mean fluorescence intensity (MFI) of peptide-pulsed RMA-S-C1402 cells or RMA-S-C1403 cells to that of control (non-peptide-pulsed) cells kept at 26°C, multiplied by 100 to express the values for peptide-pulsed cells as a percentage of that for the control cells at 26°C.

HLA-C*14:02 = HLA-C*14:02 (Homo sapiens, UniProt P10321, A176E/A330V/A35S/A97T/C350S/D114A/D33S/L171W/L180R/L218V/M285V/M309V/M331V/P208H/Q277E/Q291P/R121W/R243W/S123F/S297R/S48A/T329A/T363A/V319A); test: HLA stabilization assay on RMA-S-C1402 cells; format: cell-based; settings: 100 μM peptide, 26°C 1 h then 37°C 3 h, MAb DT-9 staining, flow cytometry, triplicate assays
Excerpt: as §1, §2, §3

[1] = tested on: T cells of a volunteer enrolled in an HIV vaccine trial; settings: cited from earlier work
Excerpt: We identified 6 HLA-C*14:02/C*14:03 epitopes in the present study. Five of these peptides were detected by LC-MS/MS in HLA-I eluates from both HLA-C*14:02^+ and HLA-C*14:03^+ .221 cells infected with HIV-1, and T cells specific for all 6 epitopes effectively recognized both HIV-1-infected HLA-C*14:02^+ and HLA-C*14:03^+ .221 cells. […] Responses to two of these peptides, Gag LY9 and Nef YT9, were identified in a previous study that analyzed T cell responses ...

Row | Sequence | binding to HLA-C*14:03 (stabilization of surface HLA expression) (HLA-C*14:03) | binding to HLA-C*14:02 (stabilization of surface HLA expression) (HLA-C*14:02) | HLA-C*14-restricted HIV-1 epitope status [1]
1 | FHHMAREK [NefFL8-4M8K, variant of Nef FL8, FHHMAREK, present in Japanese cohort viruses] | detectable binding to the HLA-C*14 molecules with the exception of NefFL8-4M8K | detectable binding to the HLA-C*14 molecules with the exception of NefFL8-4M8K | –
2 | LYNTVATL [Gag LL8-5V7T] | – | – | identified as an HLA-C*14-restricted HIV-1 epitope
